“Also recorded” adds a separate entry of the source. Where two headings read alike, the source gives them in different places.
What was measured:
GBM0308 non-CSCs = assay: Dose-response killing of GBM non-CSCs (PI/Hoechst, Celigo cytometer); assay type: cell-based; details: GBM0308 non-CSCs; for Non-CSCs Max. observed efficacy (% dead cells): Table 1, up to 10 μM
Description: (§1) The inventors first evaluated a cohort of seven rocaglate translation inhibitors (1, 3-7, and 9, FIG. 1A and Table 1, compounds 2 and 8 were not tested due to unavailability). To assay for compounds that selectively affect GBM CSCs, the inventors employed the patient-derived tumor-initiating cell (TIC) cell line […] that forms neurospheres (consisting exclusively of tumor-initiating cells or CSCs) when cultured in neurobasal (NBE) medium. Upon exposure to serum and growth factor withdrawal, however, the cell line differentiates, acquires a flattened morphology, and forms a non-CSC population.^20 Thus, compounds can be tested in parallel to assess their effect on GBM CSCs vs. GBM non-CSCs as separate populations with a clean and robust response. This approach has been previously used to perform RNAi-based genetic screens to identify modulators of CSCs.^20 In this study, GBM0308 cells, cultured in stem cell conditions to form CSCs or in medium containing serum to induce differentiation into a non-CSC population, were treated in parallel with compounds at varying doses. Three days post-treatment, propidium iodide (PI) and Hoechst staining were performed and quantified using a Celigo image cytometer. Hoechst dye stained all […] nucleated cells, while PI exclusively stained dead cells. Cell viability and the percentage of cell death were then determined.
(§2) Cell Culture: Glioblastoma stem cell lines GBM0308, BT145, and BT112 were cultured in neurobasal (NBE medium) containing N-2 and B-27 supplements, EGF, bFGF, L-glutamine, and Penicillin-Streptomycin), as described previously.^19 Adherent GBM cells were cultured in serum-containing DMEM media (Invitrogen) supplemented with 10% fetal bovine serum (Corning Cellgro™). Cells were incubated at 37° C. and 5% CO2 to allow neurosphere formation. For seeding and subculturing, the neurospheres were gently trypsinized with 0.025% trypsin to form a single-cell suspension.
(§3) Dose-Response Testing in GBM Cells: Briefly, on day 1, cells were seeded in triplicate. For CSCs, 1500 cells/well were plated in a low attachment 96-well plate with NBE media and incubated for 3 days at 37° C. and 5% CO2 to allow the formation of neurospheres. For non-CSCs, 3000 cells/well were plated in a 96-well plate with DMEM media supplemented with 10% FBS. Similarly, the assay plates were also incubated for the same duration. Compound treatments started on day 4. Each compound was resuspended in DMSO and then diluted to different concentrations in media to a final concentration of DMSO less than 1%. The compounds were added at concentrations of 10, 3.3, 1.11, 0.37, 0.12, 0.041, 0.013, and 0.004 µM, respectively. DMSO-treated cells served as a control. After 72 h incubation with the compounds, fluorescent stains, propidium iodide, and Hoechst 33342 (Life Technologies, Carlsbad, CA), were used to stain the GBM cells to determine cell viability. A staining solution in 1×PBS was prepared by mixing PI and Hoechst 33342 to working concentrations of 2.5 μM and 20 μM, respectively. 20 μL of this staining solution was added per well, and plates were incubated at 37° C. and 5% CO2 for 60 min. After incubation, plates were read by Celigo imaging cytometer using an inbuilt Celigo application; Cell Viability (Dead+Total). For the viability measurement, the total number of neurospheres/cells and dead neurospheres/cells in each well were counted by the cytometer. The percentage of PI+ cells was normalized to DMSO and plotted against the drug concentration to calculate the EC50 with a four-parameter, variable-slope dose-response curve with an upper constraint of <100% dead cells and a lower constraint of =0% dead cells (GraphPad Prism v.10.0.0). For all dose response experiments, the experimental maximal efficacy (maximum observed % cell death) is reported. Relative EC50 values are reported for all compounds killing >50% of cells.

GBM0308 CSCs = assay: Dose-response killing of GBM CSCs (PI/Hoechst, Celigo cytometer); assay type: cell-based; details: for CSCs Max. observed efficacy (% dead cells): up to 10 μM
Description: as §1, §2, §3

[1] = molecular target: DDX3X:FAM-labeled poly r(AG)8 (Homo sapiens, UniProt O00571); assay: Fluorescence polarization (FP) RNA clamping assay, DDX3X; assay type: binding; details: 1 mM ATP; for stimulation of DDX3X:(AG)8 complex formation in protein titration, in words: 50 μM rocaglate; for stimulation of DDX3X binding to RNA (change in polarization), in words: compound 10 μM
Chain of DDX3X:FAM-labeled poly r(AG)8 (O00571 whole entry, species assumed): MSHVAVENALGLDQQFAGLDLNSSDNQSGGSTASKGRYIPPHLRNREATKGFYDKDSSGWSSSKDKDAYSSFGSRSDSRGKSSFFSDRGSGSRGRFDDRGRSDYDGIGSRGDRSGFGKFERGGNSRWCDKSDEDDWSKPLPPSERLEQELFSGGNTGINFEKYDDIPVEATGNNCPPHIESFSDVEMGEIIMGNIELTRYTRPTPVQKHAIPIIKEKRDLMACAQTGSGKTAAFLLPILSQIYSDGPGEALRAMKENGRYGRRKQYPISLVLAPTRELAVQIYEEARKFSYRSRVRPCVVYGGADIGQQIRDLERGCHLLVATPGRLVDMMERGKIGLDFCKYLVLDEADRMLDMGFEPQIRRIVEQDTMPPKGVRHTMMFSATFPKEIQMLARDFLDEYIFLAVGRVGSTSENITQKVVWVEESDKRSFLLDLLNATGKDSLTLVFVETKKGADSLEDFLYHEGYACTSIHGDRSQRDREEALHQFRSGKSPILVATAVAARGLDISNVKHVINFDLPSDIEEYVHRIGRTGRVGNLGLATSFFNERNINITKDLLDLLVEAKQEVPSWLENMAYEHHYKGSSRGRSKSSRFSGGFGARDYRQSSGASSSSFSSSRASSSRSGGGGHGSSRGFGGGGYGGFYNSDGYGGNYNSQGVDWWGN
Description: (§4) Given these observations, the inventors next sought to interrogate the effects of compound (−)-20 in secondary assays for both eIF4A and DDX3 engagement. […] While inherent differences between the FP assay conditions (e.g. probe affinity, protein mobility in FP buffer) preclude direct comparison of absolute AmP values across the two different proteins, the inventors noted that relative anti-CSC potencies for these compounds ((−)-7>(−)-5≈(−)-20) were similar to their relative degrees of clamping for DDX3X and eIF4A1. To follow up on these findings, the inventors performed in vitro translation experiments using a bicistronic mRNA reporter construct FF-HCV-Ren, where translation of the firefly luciferase (FF) cistron is cap-dependent, while translation of the Renilla luciferase (HCV-Ren) cistron is driven off an HCV-IRES, rendering translation of this cistron cap-independent.
Fluorescence Polarization (FP) Assays: Recombinant DDX3X or eIF4A1 (1.5 μM) were incubated with 10 nM FAM-labelled RNA probe and test compounds for 10 min in FP buffer (14.4 mM HEPES-KOH (pH 8), 108 mM NaCl, 1 mM MgCl2, 14.4% glycerol, 0.1% DMSO, 2 mM DTT, 1 mM ATP) at room temperature in black, low-volume 384 well plates (Corning 3820). FP readings were performed using a Pherastar FS microplate reader (BMG Labtech). Compounds were tested at a final concentration of 10 μM.^S9 For ADP+Pi conditions, ATP was substituted with 1 mM ADP and 1 mM Na2HPO4. To assess potency of complex formation, proteins were titrated in the presence of 10 nM probe, 50 μM compounds and 1 mM ATP. Experiments were run in three replicates, with each replicate employing the same master mix of protein, probe and buffer split across the four test conditions (DMSO+three test compounds). Within each replicate, data was normalized such that the highest response across the four tested conditions (as raw AmP counts) was used as 100% relative change in polarization, and the lowest response across the four tested conditions was used as 0% relative change in polarization. Data was analyzed using GraphPad Prism 8.4.0, with a “[Agonist] vs. normalized response” nonlinear regression model used to determine the EC50 for stimulation of helicase-RNA probe binding in the presence of test compound.

[2] = molecular target: eIF4A1:FAM-labeled poly r(AG)8 (Homo sapiens, UniProt P60842); assay: Fluorescence polarization (FP) RNA clamping assay, eIF4A1; assay type: binding; details: compound 10 μM, 1 mM ATP
Chain of eIF4A1:FAM-labeled poly r(AG)8 (P60842 whole entry, species assumed): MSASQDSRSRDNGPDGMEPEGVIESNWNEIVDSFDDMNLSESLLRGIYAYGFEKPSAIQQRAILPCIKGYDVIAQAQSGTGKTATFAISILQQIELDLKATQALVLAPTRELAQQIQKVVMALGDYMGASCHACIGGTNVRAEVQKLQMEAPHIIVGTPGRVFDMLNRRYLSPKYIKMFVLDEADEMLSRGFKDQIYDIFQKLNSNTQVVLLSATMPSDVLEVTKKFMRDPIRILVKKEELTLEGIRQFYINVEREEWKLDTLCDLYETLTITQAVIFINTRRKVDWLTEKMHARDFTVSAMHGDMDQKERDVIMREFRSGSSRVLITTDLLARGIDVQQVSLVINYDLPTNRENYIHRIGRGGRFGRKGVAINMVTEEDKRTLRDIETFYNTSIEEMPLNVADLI
Description: as §4
Fluorescence Polarization (FP) Assays: Recombinant DDX3X or eIF4A1 (1.5 μM) were incubated with 10 nM FAM-labelled RNA probe and test compounds for 10 min in FP buffer (14.4 mM HEPES-KOH (pH 8), 108 mM NaCl, 1 mM MgCl2, 14.4% glycerol, 0.1% DMSO, 2 mM DTT, 1 mM ATP) at room temperature in black, low-volume 384 well plates (Corning 3820). FP readings were performed using a Pherastar FS microplate reader (BMG Labtech). Compounds were tested at a final concentration of 10 μM.^S9 For ADP+Pi conditions, ATP was substituted with 1 mM ADP and 1 mM Na2HPO4. To assess potency of complex formation, proteins were titrated in the presence of 10 nM probe, 50 μM compounds and 1 mM ATP. Experiments were run in three replicates, with each replicate employing the same master mix of protein, probe and buffer split across the four test conditions (DMSO+three test compounds). […] Data was analyzed using GraphPad Prism 8.4.0, with a “[Agonist] vs. normalized response” nonlinear regression model used to determine the EC50 for stimulation of helicase-RNA probe binding in the presence of test compound.

Q: Which “cytotoxic activity against non-CSCs, in words” value (GBM0308 non-CSCs) does the source give for `COc1cc(OC)c2c(c1)O[C@@]1(c3ccc(Br)cc3)[C@H](c3ccccc3)[C@@H](C(=O)NS(=O)(=O)N(C)C)[C@@H](O)[C@@]21O` [(−)-20, (1R,2R,3S,3aR,8bS)-3a-(4-bromophenyl)-N—(N,N-dimethylsulfamoyl)-1,8b-dihydroxy-6,8-dimethoxy-3-phenyl-2,3,3a,8b-tetrahydro-1H-cyclopenta[b]benzofuran-2-carboxamide] here?
A: limited detectable effects

Q: What about the Emax (GBM0308 non-CSCs; Homo sapiens, Table 2, 72 h, highest tested concentration 10 μM, read-out: Non-CSCs Max. observed efficacy (% dead cells)) of the same molecule?
A: 26%

Q: And the “fold by which potency of CSC death is higher than effects on cap-dependent translation” value (GBM0308 CSCs; CSC EC50 vs translation EC50)?
A: ~20 fold

Q: What about the EC50 (GBM0308 CSCs; Homo sapiens, 72 h, Table 2, GBM0308 CSCs, 72 h treatment, relative EC50, read-out: CSCs EC50) of the same molecule?
A: 45 nM

Q: And the Emax (GBM0308 CSCs; Homo sapiens, 72 h, read-out: CSCs Max. observed efficacy (% dead cells), Table 2, GBM0308 CSCs, 72 h, highest tested concentration 10 μM)?
A: 93%

Q: And the “stimulation of DDX3X:(AG)8 complex formation in protein titration, in words” value (from here on “stimulation … in protein titration, in words”) [1]?
A: significant enhancement of binding stimulation

Q: And the “stimulation of DDX3X binding to RNA (change in polarization), in words” value [1]?
A: stimulated RNA binding to a greater extent

Q: And the “stimulation of eIF4A1 binding to RNA (change in polarization), in words” value [2]?
A: strongly stimulated

Q: `CONC(=O)[C@H]1[C@@H](O)[C@@]2(O)c3c(OC)cc(OC)cc3O[C@@]2(c2ccc(Br)cc2)[C@@H]1c1ccccc1` [(−)-7, SDS-1-021] was tested. Which “Non-CSCs Max. observed efficacy (% dead cells)” value (GBM0308 non-CSCs; 72 h) did it give?
A: 31%

Q: What about the “CSCs Max. observed efficacy (% dead cells)” value (GBM0308 CSCs; Table 1, GBM0308 CSCs, 72 h) of the same molecule?
A: 92%

Q: What about the EC50 (GBM0308 CSCs; Table 1, GBM0308 CSCs, 72 h treatment, relative EC50, given for compounds causing at least 50% cell death, read-out: CSCs EC50) of the same molecule?
A: 7 nM

Q: And the “stimulation … in protein titration, in words” value [1]?
A: clearly favored; also recorded: significant enhancement of binding stimulation

Q: And the “stimulation of DDX3X binding to RNA (change in polarization), in words” value [1]?
A: stimulated RNA binding to a greater extent

Q: What about the “stimulation of eIF4A1 binding to RNA (change in polarization), in words” value [2] of the same molecule?
A: strongly stimulated; also recorded: strongest clamping

Q: For `CONC(=O)[C@H]1[C@@H](O)[C@@]2(O)c3c(OC)cc(OC)cc3O[C@@]2(c2ccc(OC)cc2)[C@@H]1c1ccccc1` [(−)-5, CR-1-31b, reference compound], which “Non-CSCs Max. observed efficacy (% dead cells)” value (GBM0308 non-CSCs; 72 h) is on record?
A: 22%

Q: And the EC50 (GBM0308 CSCs; GBM0308 CSCs, read-out: CSC EC50)?
A: 36 nM

Q: And the “CSCs Max. observed efficacy (% dead cells)” value (GBM0308 CSCs; Table 1, GBM0308 CSCs, 72 h)?
A: 91%

Q: What about the “stimulation … in protein titration, in words” value [1] of the same molecule?
A: significantly less efficacious

Q: And the “stimulation of eIF4A1 binding to RNA (change in polarization), in words” value [2]?
A: strongly stimulated
